Tests used:
vesamicol receptor [1] = conditions: cited from earlier work
[2] = system: cholinergic neurotransmission; test: In vivo anticholinergic activity in mice (spasms, respiratory distress, paralysis, death); design: key to Pharmacological activity in mice: LD: lethal dose; NR: no visible pharmacological reaction; +: visible anticholinergic effects; S: sluggishness and reduced locomotor activity
Description: in vivo anticholinergic activity was evaluated in mice. Blockade of cholinergic neurotransmission (or anticholinergic activity) was manifested in a rapidly developing respiratory distress, spasms and paralysis. At lethal doses these symptoms were followed by death within 10 min. As evident in Table 3, several of the compounds tested were lethal at doses as low as 5 and 10 umol/Kg. […] All of the potent compounds belong to the 1,4 series, an observation consistent with the in vitro data discussed above.
^a Group of mice (n = 2) received selected doses of the compounds by
activity: spasms, respiratory distress, paralysis. At lethal doses, death
generally occurred within 10 min following the injection.

vesamicol receptor [3] = molecular target: T1, vesamicol receptor (Tetronarce californica, UniProt P81721); test: Inhibition of [^3 H]vesamicol binding to highly purified synaptic vesicles (electric organ of Torpedo Californica); conditions: for in vitro potency (in words): relative to comparator compounds
T1 sequence (P81721 1-515): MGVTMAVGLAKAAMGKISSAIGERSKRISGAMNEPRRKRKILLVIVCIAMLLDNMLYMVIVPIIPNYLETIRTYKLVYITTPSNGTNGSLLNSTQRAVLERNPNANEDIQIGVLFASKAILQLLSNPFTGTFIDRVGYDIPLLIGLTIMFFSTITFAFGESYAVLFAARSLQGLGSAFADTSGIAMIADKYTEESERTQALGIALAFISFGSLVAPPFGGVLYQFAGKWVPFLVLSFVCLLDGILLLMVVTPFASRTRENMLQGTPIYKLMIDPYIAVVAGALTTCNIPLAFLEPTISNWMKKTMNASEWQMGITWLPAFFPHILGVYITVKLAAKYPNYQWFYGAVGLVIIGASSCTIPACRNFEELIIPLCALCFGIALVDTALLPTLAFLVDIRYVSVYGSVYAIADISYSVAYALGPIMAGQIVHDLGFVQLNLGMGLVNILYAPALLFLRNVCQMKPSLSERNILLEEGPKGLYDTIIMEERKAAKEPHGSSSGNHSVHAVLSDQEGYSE
Excerpt: vesicles harvested from the electric organ of Torpedo Californica.
^b Data obtained from Bahr and Parsons (1986).
IC50 values are quoted ±1 standard deviation.
^d Obtained from Efange et al. (1991).

[4] = .30 umol/Kg (so in the source) ip
[5] = .60 umol/Kg (so in the source) ip

OC(Cc1ccc(Br)cc1)CN1CCC(c2ccccc2)CC1 (racemic) [(dl)-4c]
increase in potency (vesamicol receptor [1]; 4c relative to 4a): 59 times

O[C@H]1CNCC[C@@H]1N1CCC(c2ccccc2)CC1 (relative stereo) [Compound 5, 3-Hydroxy-4-(4-phenylpiperidinyl)piperidine]
Pharmacological activity in mice [2, 4]: NR

O[C@H]1CCNC[C@@H]1N1CCC(c2ccccc2)CC1 (relative stereo) [Compound 6]
Pharmacological activity in mice [2, 4]: NR

O=C(c1ccccc1)N1CC[C@H](N2CCC(c3ccccc3)CC2)[C@@H](O)C1 (relative stereo) [Compound 9a, 1-Benzoyl-3-hydroxy-4-(4-phenylpiperidinyl)piperidine]
Pharmacological activity in mice [2, 5]: LD

O=C(c1ccccc1)N1CC[C@H](O)[C@@H](N2CCC(c3ccccc3)CC2)C1 (relative stereo) [Compound 10a, 1-Benzoyl-4-hydroxy-3-(4-phenylpiperidinyl)piperidine]
Pharmacological activity in mice [2, 4]: LD

O=C(c1ccccc1I)N1CC[C@H](O)[C@@H](N2CCC(c3ccccc3)CC2)C1 (relative stereo) [Compound 10b, 4-Hydroxy-1-(2-iodobenzoyl)-3-(4-phenylpiperidinyl)piperidine]
Pharmacological activity in mice ([2]; 2.5 umol/Kg ip): NR
Pharmacological activity in mice ([2]; 20 umol/Kg ip): +

O[C@H]1CN(Cc2ccccc2)CC[C@@H]1N1CCC(c2ccccc2)CC1 (relative stereo) [Compound 11a]
Pharmacological activity in mice ([2]; 10 umol/Kg ip): NR
Pharmacological activity in mice ([2]; 20 umol/Kg ip): +

O[C@H]1CN(Cc2ccccc2Br)CC[C@@H]1N1CCC(c2ccccc2)CC1 (relative stereo) [Compound 11b]
in vitro potency (in words) (vesamicol receptor [3]): slight but noticeable increase in activity
Pharmacological activity in mice ([2]; 5.0 umol/Kg ip): NR
Pharmacological activity in mice ([2]; 10 umol/Kg ip): +

O[C@H]1CN(Cc2cccc(Br)c2)CC[C@@H]1N1CCC(c2ccccc2)CC1 (relative stereo) [Compound 11c]
Pharmacological activity in mice ([2]; 10 umol/Kg ip): NR
Pharmacological activity in mice ([2]; 20 umol/Kg ip): NR
Pharmacological activity in mice [2, 5]: NR
hind leg paralysis in mice ([2]; footnote c, .60 umol/Kg (so in the source) ip): Hind legs remained visibly paralyzed
duration of visible hind leg paralysis ([2]; postinjection, footnote c, .60 umol/Kg (so in the source) ip): at least 15 min

O[C@H]1CN(Cc2ccc(Br)cc2)CC[C@@H]1N1CCC(c2ccccc2)CC1 (relative stereo) [Compound 11d]
Pharmacological activity in mice ([2]; 10 umol/Kg ip): NR

O[C@H]1CCN(Cc2ccccc2)C[C@@H]1N1CCC(c2ccccc2)CC1 (relative stereo) [Compound 12a]
in vitro potency (in words) (vesamicol receptor [3]): increased potency
Pharmacological activity in mice ([2]; 10 umol/Kg ip): LD

O[C@H]1CCN(Cc2ccc(F)cc2)C[C@@H]1N1CCC(c2ccccc2)CC1 (relative stereo) [Compound 12d]
in vitro potency (in words) (vesamicol receptor [3]): enhances potency
Pharmacological activity in mice ([2]; 10 umol/Kg ip): LD

O[C@H]1CCN(Cc2ccccc2Br)C[C@@H]1N1CCC(c2ccccc2)CC1 (relative stereo) [Compound 12e]
Pharmacological activity in mice ([2]; 10 umol/Kg ip): LD

O[C@H]1CCN(Cc2cccc(Br)c2)C[C@@H]1N1CCC(c2ccccc2)CC1 (relative stereo) [Compound 12f]
Pharmacological activity in mice ([2]; 5.0 umol/Kg ip): NR
Pharmacological activity in mice ([2]; 10 umol/Kg ip): LD

O[C@H]1CCN(Cc2ccc(Br)cc2)C[C@@H]1N1CCC(c2ccccc2)CC1 (relative stereo) [Compound 12g, 1-(4-Bromobenzyl)-4-hydroxy-3-(4-phenylpiperidinyl)piperidine]
Pharmacological activity in mice ([2]; 10 umol/Kg ip): +
Pharmacological activity in mice ([2]; 20 umol/Kg ip): LD

O[C@H]1CCN(Cc2cccc(I)c2)C[C@@H]1N1CCC(c2ccccc2)CC1 (relative stereo) [Compound 12h]
Pharmacological activity in mice ([2]; 1.3 umol/Kg ip): NR
Pharmacological activity in mice ([2]; 5.0 umol/Kg ip): LD

O=[N+]([O-])c1ccc(N2CC[C@H](O)[C@@H](N3CCC(c4ccccc4)CC3)C2)cc1 (relative stereo) [Compound 12l, 4-Hydroxy-1-(4-nitrophenyl)-3-(4-phenylpiperidinyl)piperidine]
Pharmacological activity in mice ([2]; .15 umol/Kg (so in the source) ip): NR

O=C(c1ccccc1)N1CC[C@H](O)[C@@H](N2CCC(c3ccccc3)CC2)C1 [(+)-10a]
anticholinergic effects in mice ([2]; 2.5 umol/Kg): elicited anticholinergic effects
Pharmacological activity in mice ([2]; 2.5 umol/Kg ip): +
Pharmacological activity in mice ([2]; 5.0 umol/Kg ip): LD
Pharmacological activity in mice [2, 4]: LD

O=C(c1ccccc1)N1CC[C@@H](O)[C@H](N2CCC(c3ccccc3)CC2)C1 [(-)-10a]
IC50 (vesamicol receptor [3]; inhibition of [^3 H]vesamicol binding, hydrochlorides, ±1 standard deviation): 100 ± 30 nM
Pharmacological activity in mice ([2]; 5.0 umol/Kg ip): +

CC(C)(C)C1CC[C@@H](O)[C@H](N2CCC(c3ccccc3)CC2)C1 (stereo partly shown) [Compound 3]
vesamicol receptor affinity (in words) (vesamicol receptor [1]; earlier studies): potent ligands

From patent US5876694A, “Azavesamicols” (priority 1997, dated 1999)
